Test results from ChEMBL document CHEMBL1201861, “Genomics of Drug Sensitity in Cancer screening data, Wellcome Trust Sanger Institute”.

What was measured:
HC-1 = test: cells; format: functional, cell-based, Homo sapiens; settings: Homo sapiens, HC-1;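 further: growth inhibition of HC-1 cells measured by a cell viability assay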
Description: SANGER: Inhibition of human HC-1 cell growth in a cell viability assay.

MOLT-13 = test: cells; format: functional, cell-based; settings: Homo sapiens;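 further: IC50 for suppression of MOLT-13 cell growth, read out with a cell viability assay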
Description: SANGER: Inhibition of human MOLT-13 cell growth in a cell viability assay.

PF-382 = test: cells; format: functional, cell-based, Homo sapiens; settings: Homo sapiens, PF-382
Description: SANGER: Inhibition of human PF-382 cell growth in a cell viability assay.

LOUCY = test: cells; format: functional, cell-based, Homo sapiens; settings: Homo sapiens, LOUCY;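 further: growth inhibition of human LOUCY cells, read out with a cell viability assay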
Description: SANGER: Inhibition of human LOUCY cell growth in a cell viability assay.

SR = test: cells; format: functional, cell-based, Homo sapiens; settings: Homo sapiens, SR
Description: SANGER: Inhibition of human SR cell growth in a cell viability assay.

NCI-H1963 = test: cells; format: functional, cell-based, Homo sapiens; settings: Homo sapiens, NCI-H1963
Description: SANGER: Inhibition of human NCI-H1963 cell growth in a cell viability assay.

SCLC-21H = test: cells; format: functional, cell-based, Homo sapiens; settings: Homo sapiens, SCLC-21H;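 further: growth inhibition of cultured human SCLC-21H cells, read out with a cell viability assay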
Description: SANGER: Inhibition of human SCLC-21H cell growth in a cell viability assay.

K052 = test: cells; format: functional, cell-based, Homo sapiens; settings: Homo sapiens, K052;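 further: Read-out from a cell viability assay, IC50 reflecting suppression of K052 cell growth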
Description: SANGER: Inhibition of human K052 cell growth in a cell viability assay.

Kasumi 1 = test: cells; format: functional, cell-based, Homo sapiens; settings: Homo sapiens, Kasumi 1;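 further: growth inhibition of human Kasumi-1 cells, read out by a cell viability assay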
Description: SANGER: Inhibition of human KASUMI-1 cell growth in a cell viability assay.

BC1 cell line = test: SANGER: Inhibition of human BC-1 cell growth in a cell viability assay.; format: functional, cell-based; settings: Homo sapiens, BC1
OPM-2 = test: cells; format: functional, cell-based, Homo sapiens; settings: Homo sapiens, OPM-2;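 further: growth of OPM-2 cells measured with a viability assay, IC50 for suppression of proliferation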
Description: SANGER: Inhibition of human OPM-2 cell growth in a cell viability assay.

NCI-H1436 = test: cells; format: functional, cell-based, Homo sapiens; settings: Homo sapiens, NCI-H1436;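 further: growth suppression of human NCI-H1436 cells, determined with a cell viability readout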
Description: SANGER: Inhibition of human NCI-H1436 cell growth in a cell viability assay.

NCI-H2141 = test: cells; format: functional, cell-based, Homo sapiens; settings: Homo sapiens, NCI-H2141;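 further: growth inhibition of human NCI-H2141 cells, read out with a cell viability assay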
Description: SANGER: Inhibition of human NCI-H2141 cell growth in a cell viability assay.

CHP-126 = test: cells; format: functional, cell-based, Homo sapiens; settings: Homo sapiens, CHP-126
Description: SANGER: Inhibition of human CHP-126 cell growth in a cell viability assay.

EB-3 = test: cells; format: functional, cell-based, Homo sapiens; settings: Homo sapiens, EB-3;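 further: human EB-3 cells, growth inhibition read out via a cell viability assay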
Description: SANGER: Inhibition of human EB-3 cell growth in a cell viability assay.

NCI-H64 = test: cells; format: functional, cell-based, Homo sapiens; settings: Homo sapiens, NCI-H64;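 further: growth inhibition of NCI-H64 cells, read out with a cell viability assay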
Description: SANGER: Inhibition of human NCI-H64 cell growth in a cell viability assay.

D-336MG = test: cells; format: functional, cell-based, Homo sapiens; settings: Homo sapiens, D-336MG
Description: SANGER: Inhibition of human D-336MG cell growth in a cell viability assay.

NCI-H2171 = test: cells; format: functional, cell-based, Homo sapiens; settings: Homo sapiens, NCI-H2171;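 further: growth inhibition of human NCI-H2171 cells, read out by a cell viability assay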
Description: SANGER: Inhibition of human NCI-H2171 cell growth in a cell viability assay.

Structure (SMILES)	IC50 (HC-1)	IC50 (MOLT-13)	IC50 (PF-382)	IC50 (LOUCY)	IC50 (SR)	IC50 (NCI-H1963)	IC50 (SCLC-21H)	IC50 (K052)	IC50 (Kasumi 1)	IC50 (BC1 cell line)	IC50 (OPM-2)	IC50 (NCI-H1436)	IC50 (NCI-H2141)	IC50 (CHP-126)	IC50 (EB-3)	IC50 (NCI-H64)	IC50 (D-336MG)	IC50 (NCI-H2171)
Cc1cc(N2CCOCC2)cc2[nH]c(-c3c(NC[C@@H](O)c4cccc(Cl)c4)cc[nH]c3=O)nc12	> 5.12 µM	> 5.12 µM	> 5.12 µM	> 5.12 µM	2.05 µM	> 5.12 µM	> 5.12 µM	> 5.12 µM	> 5.12 µM	> 5.12 µM	0.525 µM	> 5.12 µM	> 5.12 µM	> 5.12 µM	> 5.12 µM	> 5.12 µM	0.872 µM	> 5.12 µM
Nc1ccccc1NC(=O)c1ccc(CNC(=O)OCc2cccnc2)cc1 [ENTINOSTAT]	0.505 µM	0.338 µM	1.12 µM	0.634 µM	0.343 µM	0.116 µM	1.26 µM		> 5 µM	0.434 µM	0.415 µM	4.18 µM	3.17 µM	0.402 µM	4 µM	1.28 µM	> 5 µM	1.35 µM
Cc1ccc(NC(=O)c2ccc(CN3CCN(C)CC3)cc2)cc1Nc1nccc(-c2cccnc2)n1 [IMATINIB]	> 2 µM	> 2 µM	> 2 µM	> 2 µM	> 2 µM	> 2 µM	> 2 µM	> 2 µM	> 2 µM	> 2 µM	> 2 µM	0.978 µM	> 2 µM	> 2 µM	> 2 µM	> 2 µM	> 2 µM	> 2 µM
